Data as given in the supplement of paper PMC10307832.

Tests used:
Assay in all cases: relative viability (nuclei count vs DMSO), 5 days (fraction); higher = more cells survive
Zosuquidar + Phenformin = compound: O[C@@H](COc1cccc2ncccc12)CN1CCN([C@@H]2c3ccccc3[C@@H]3[C@H](c4ccccc42)C3(F)F)CC1 [Zosuquidar] + N=C(N)NC(=N)NCCc1ccccc1 [Phenformin] (partner 250 µM)
In short: (§1)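 For relative viability, nuclei counts in treated wells were divided by those in vehicle wells. Lung cancer cell lines had been pin-tool dosed in 1536-well plates the day after seeding and cultured for 5 days, then fixed and stained in one step (final 0.05% Triton X-100, 1% formaldehyde, 1 ug/ml Hoechst) and imaged at 4×. Doses were one drug alone or a fixed anchor-drug dose plus five library-drug doses (not always all listed) in √10 steps, and values are duplicate-plate medians.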

Zosuquidar + Crizotinib = compound: O[C@@H](COc1cccc2ncccc12)CN1CCN([C@@H]2c3ccccc3[C@@H]3[C@H](c4ccccc42)C3(F)F)CC1 [Zosuquidar] + C[C@@H](Oc1cc(-c2cnn(C3CCNCC3)c2)cnc1N)c1c(Cl)ccc(F)c1Cl [Crizotinib] (partner 1 µM)
In short: as §1

Zosuquidar + Luminespib = compound: O[C@@H](COc1cccc2ncccc12)CN1CCN([C@@H]2c3ccccc3[C@@H]3[C@H](c4ccccc42)C3(F)F)CC1 [Zosuquidar] + CCNC(=O)c1noc(-c2cc(C(C)C)c(O)cc2O)c1-c1ccc(CN2CCOCC2)cc1 [Luminespib] (partner 0.01 µM)
In short: as §1

[1] = compound: COc1cc2nccc(Oc3ccc(NC(=O)C4(C(=O)Nc5ccc(F)cc5)CC4)cc3)c2cc1OC [Cabozantinib] + CCNC(=O)c1noc(-c2cc(C(C)C)c(O)cc2O)c1-c1ccc(CN2CCOCC2)cc1 [Luminespib] (partner 0.01 µM)
In short: as §1

| Cell Line | relative viability (Zosuquidar + Phenformin; first compound 0.01 µM) | relative viability (Zosuquidar + Phenformin; first compound 0.03162 µM) | relative viability (Zosuquidar + Phenformin; first compound 0.1 µM) | relative viability (Zosuquidar + Phenformin; first compound 0.3162 µM) | relative viability (Zosuquidar + Phenformin; first compound 1 µM) | relative viability (Zosuquidar + Crizotinib; first compound 0.01 µM) | relative viability (Zosuquidar + Crizotinib; first compound 0.03162 µM) | relative viability (Zosuquidar + Crizotinib; first compound 0.1 µM) | relative viability (Zosuquidar + Crizotinib; first compound 0.3162 µM) | relative viability (Zosuquidar + Crizotinib; first compound 1 µM) | relative viability (Zosuquidar + Luminespib; first compound 0.01 µM) | relative viability (Zosuquidar + Luminespib; first compound 0.03162 µM) | relative viability (Zosuquidar + Luminespib; first compound 0.1 µM) | relative viability (Zosuquidar + Luminespib; first compound 0.3162 µM) | relative viability (Zosuquidar + Luminespib; first compound 1 µM) | relative viability ([1]; first compound 0.02 µM) | relative viability ([1]; first compound 0.06325 µM) | relative viability ([1]; first compound 0.2 µM) | relative viability ([1]; first compound 0.6325 µM) | relative viability ([1]; first compound 2 µM) |
| --- | --- | --- | --- | --- | --- | --- | --- | --- | --- | --- | --- | --- | --- | --- | --- | --- | --- | --- | --- | --- |
| NCI-H2023 | 0.387 | 0.426 | 0.385 | 0.408 | 0.396 | 0.593 | 0.679 | 0.743 | 0.741 | 0.606 | 0.796 | 0.619 | 0.904 | 0.776 | 0.759 | 0.839 | 0.68 | 0.635 | 0.641 | 0.539 |
| HCC-44 | 0.259 | 0.191 | 0.161 | 0.336 | 0.209 | 0.761 | 0.828 | 0.84 | 0.846 | 0.804 | 1.14 | 1.16 | 1.17 | 1.01 | 1.08 | – | 1.15 | 1.08 | 1 | 1.02 |
| ChaGo-K-1 | 0.573 | 0.419 | 0.554 | 0.506 | 0.51 | 1.08 | 1.2 | 1.32 | 1.1 | 1.13 | 0.714 | 0.625 | 0.652 | 0.578 | 0.512 | 0.638 | 0.757 | 0.737 | 0.765 | 0.447 |
| COR-L23 | 0.422 | 0.413 | 0.416 | 0.514 | 0.453 | 0.661 | 0.699 | 0.787 | 0.647 | 0.716 | 0.619 | 0.631 | 0.747 | 0.777 | 0.776 | 0.733 | 0.823 | 0.723 | 0.675 | 0.658 |
| EMC-BAC-2 | 0.523 | 0.541 | 0.517 | 0.602 | 0.537 | 0.78 | 0.724 | 0.767 | 0.843 | 0.765 | 1.19 | 1.19 | 1.05 | 1.29 | 1.11 | 1.23 | 1.15 | 1.24 | 1.1 | 1.09 |
| LCLC-103H | 0.306 | 0.314 | 0.255 | 0.356 | 0.331 | 1.07 | 1.09 | 0.991 | 0.892 | 0.989 | 0.983 | 0.957 | 0.74 | 0.93 | 1 | 1.07 | 0.962 | 1.03 | 0.983 | 0.905 |
